From patent US20100311714A1, “1H-IMIDAZO[4,5-c]QUINOLINONE COMPOUNDS” (priority 2009, published 2010)
Values after ≈ are worked out from the molar mass of the structure shown.

Key:
[1] = test system: PKB Ser473 phosphorylation in Rat1-myr-HA-p110 beta cells; experiment: Reverse protein array, PKB Ser473 phosphorylation in Rat1-myr-HA-p110 beta cells; assay type: cell-based; conditions: Rattus norvegicus, 0.5 h, 30 minutes compound incubation, read-out: p-PKB/IC50_beta
[2] = test system: PKB Ser473 phosphorylation in Rat1-myr-HA-p110 alpha cells; experiment: Reverse protein array, PKB Ser473 phosphorylation in Rat1-myr-HA-p110 alpha cells; assay type: cell-based; conditions: Rattus norvegicus, 0.5 h, 30 minutes compound incubation, read-out: p-PKB/IC50_alpha
[3] = High-throughput equilibrium solubility at pH 6.8; assay type: physicochemical; conditions: pH 6.8, aqueous buffer, thermodynamic from solid; read-out: HT-Eq Sol/pH 6.8
Method in brief: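 Solubility was measured at pH 6.8 following the cited Zhou et al. (2007) procedure.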

[4] = Parallel Artificial Membrane Permeability Assay (PAMPA) at pH 6.8; assay type: physicochemical
Method in brief: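 PAMPA permeability measured at pH 6.8 following the Wohnsland and Faller method; value reported as log Pe.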

Row | Structure (SMILES) | IC50 [1] [nM] | IC50 [2] [nM] | solubility thermodynamic [3] [µg/mL] | HT-Perm logPe pH6.8 [4] | HT-perm/logPe pH6.8 [4]
1 | CCNc1ncc(-c2ccc3ncc4c(c3c2)n(-c2ccc(N3CC[C@@H](O)C3)nc2C)c(=O)n4C)cc1COCC [Example 34.4, 8-(5-Ethoxymethyl-6-ethylamino-pyridin-3-yl)-1-[6-((R)-3-hydroxy-pyrrolidin-1-yl)-2-methyl-pyridin-3-yl]-3-methyl-1,3-dihydro-imidazo[4,5-c]quinolin-2-one] | 27.9 | 35 | 172 (≈ 311 µM) | −4.1 | 
2 | Cc1nc(N2CC[C@H](O)C2)ccc1-n1c(=O)n(C)c2cnc3ccc(-c4cncc(OC(C)C)c4)cc3c21 [Example 32.8, 1-[6-((S)-3-Hydroxy-pyrrolidin-1-yl)-2-methyl-pyridin-3-yl]-8-(5-isopropoxy-pyridin-3-yl)-3-methyl-1,3-dihydro-imidazo[4,5-c]quinolin-2-one] | 63.7 | 35.8 | 120 (≈ 235 µM) | −3.8 | 
3 | CNc1ncc(-c2ccc3ncc4c(c3c2)n(-c2ccc(N3CC(O)C3)nc2C)c(=O)n4C)cc1C(F)(F)F [Example 29.4, 1-[6-(3-Hydroxy-azetidin-1-yl)-2-methyl-pyridin-3-yl]-3-methyl-8-(6-methylamino-5-trifluoromethyl-pyridin-3-yl)-1,3-dihydro-imidazo[4,5-c]quinolin-2-one] | 21.9 | 8 | 44 (≈ 82.2 µM) | −5 | 
4 | CCOc1cc(-c2ccc3ncc4c(c3c2)n(-c2ccc(N3CCCC3)nc2C)c(=O)n4C)cnc1COC [Example 25.2, 8-(5-Ethoxy-6-methoxymethyl-pyridin-3-yl)-3-methyl-1-(2-methyl-6-pyrrolidin-1-yl-pyridin-3-yl)-1,3-dihydro-imidazo[4,5-c]quinolin-2-one] | 39.9 | 48 | 187 (≈ 356 µM) | −3.9 | 
5 | COCc1ncc(-c2ccc3ncc4c(c3c2)n(-c2ccc(N3CCC3)nc2C)c(=O)n4C)cc1OC [Example 23.6, 1-(6-Azetidin-1-yl-2-methyl-pyridin-3-yl)-8-(5-methoxy-6-methoxymethyl-pyridin-3-yl)-3-methyl-1,3-dihydro-imidazo[4,5-c]quinolin-2-one] | 103 | 37.1 | 21 (≈ 42.3 µM) | −4.2 | 
6 | Cc1ncccc1-n1c(=O)n(C)c2cnc3ccc(-c4cncc(N)c4)cc3c21 [Example 2.25, 8-(5-Amino-pyridin-3-yl)-3-methyl-1-(2-methyl-pyridin-3-yl)-1,3-dihydro-imidazo[4,5-c]quinolin-2-one] | 58.7 | 36.3 | 228 (≈ 596 µM) | −7.7 | 
7 | Cc1nc(F)ccc1-n1c(=O)n(C)c2cnc3ccc(-c4cnc5c(ccn5C)c4)cc3c21 [Example 7.2, 1-(6-Fluoro-2-methyl-pyridin-3-yl)-3-methyl-8-(1-methyl-1H-pyrrolo[2,3-b]pyridin-5-yl)-1,3-dihydro-imidazo[4,5-c]quinolin-2-one] | 29.5 | 12.1 | 3 (≈ 6.84 µM) |  | −3.7
8 | Cc1cccnc1-n1c(=O)n(C)c2cnc3ccc(-c4cnc(N)c(C(F)(F)F)c4)cc3c21 [Example 3.12, 8-(6-Amino-5-trifluoromethyl-pyridin-3-yl)-3-methyl-1-(3-methyl-pyridin-2-yl)-1,3-dihydro-imidazo[4,5-c]quinolin-2-one] | 172 | 13.7 | 12 (≈ 26.6 µM) |  | −4.0
9 | CNc1ncc(-c2ccc3ncc4c(c3c2)n(-c2ncccc2C)c(=O)n4C)cn1 [Example 3.4, 3-Methyl-8-(2-methylamino-pyrimidin-5-yl)-1-(3-methyl-pyridin-2-yl)-1,3-dihydro-imidazo[4,5-c]quinolin-2-one] | 527 | 226 | 11 (≈ 27.7 µM) |  | −4.7
10 | CCNc1cc(-c2ccc3ncc4c(c3c2)n(-c2ccc(N3CC(O)C3)nc2C)c(=O)n4C)cnc1CO [Example 29.2, 8-(5-Ethylamino-6-hydroxymethyl-pyridin-3-yl)-1-[6-(3-hydroxy-azetidin-1-yl)-2-methyl-pyridin-3-yl]-3-methyl-1,3-dihydro-imidazo[4,5-c]quinolin-2-one] | 32.7 | 14 | 57 (≈ 111 µM) | −7.1 | 
11 | Cc1nc(N2CCC2)ccc1-n1c(=O)n(C)c2cnc3ccc(-c4cncc(C(C)(C)O)c4)cc3c21 [Example 23.3, 1-(6-Azetidin-1-yl-2-methyl-pyridin-3-yl)-8-[5-(1-hydroxy-1-methyl-ethyl)-pyridin-3-yl]-3-methyl-1,3-dihydro-imidazo[4,5-c]quinolin-2-one] | 23.1 | 5.7 | 204 (≈ 424 µM) | −5 | 
12 | Cc1ccncc1-n1c(=O)n(C)c2cnc3ccc(-c4ccc(CO)nc4)cc3c21 [Example 4.1, 8-(6-Hydroxymethyl-pyridin-3-yl)-3-methyl-1-(4-methyl-pyridin-3-yl)-1,3-dihydro-imidazo[4,5-c]quinolin-2-one] | 694 | 542 | 75 (≈ 189 µM) |  | −6.1
13 | CCOc1cc(-c2ccc3ncc4c(c3c2)n(-c2cccnc2C)c(=O)n4C)cnc1COC [Example 2.28, 8-(5-Ethoxy-6-methoxymethyl-pyridin-3-yl)-3-methyl-1-(2-methyl-pyridin-3-yl)-1,3-dihydro-imidazo[4,5-c]quinolin-2-one] | 61 | 23.7 | 51 (≈ 112 µM) | −4.3 | 

Stronger by IC50 [1], values ahead:

Row | IC50 [1] [nM] | IC50 [2] [nM] | solubility thermodynamic [3] [µg/mL] | HT-Perm logPe pH6.8 [4] | HT-perm/logPe pH6.8 [4] | Structure (SMILES)
14 | 15.2 | 11.7 | 23 (≈ 40.8 µM) | −3.9 |  | CCNc1ncc(-c2ccc3ncc4c(c3c2)n(-c2ccc(N3CC[C@@H](O)C3)nc2C)c(=O)n4C)cc1C(F)(F)F [Example 34.2, 8-(6-Ethylamino-5-trifluoromethyl-pyridin-3-yl)-1-[6-((R)-3-hydroxy-pyrrolidin-1-yl)-2-methyl-pyridin-3-yl]-3-methyl-1,3-dihydro-imidazo[4,5-c]quinolin-2-one]
15 | 8.6 | 7.18 | 11 (≈ 26.5 µM) |  | −4.3 | CNc1ccc(-c2ccc3ncc4c(c3c2)n(-c2ccc(F)nc2C)c(=O)n4C)cn1 [Example 7.4, 1-(6-Fluoro-2-methyl-pyridin-3-yl)-3-methyl-8-(6-methylamino-pyridin-3-yl)-1,3-dihydro-imidazo[4,5-c]quinolin-2-one]
16 | < 4.57 | 5.1 | 23 (≈ 48.9 µM) | −4.9 |  | CNc1ncc(-c2ccc3ncc4c(c3c2)n(-c2ccc(N(C)CCO)nc2C)c(=O)n4C)cn1 [Example 26.2, 1-{6-[(2-Hydroxy-ethyl)-methyl-amino]-2-methyl-pyridin-3-yl}-3-methyl-8-(2-methylamino-pyrimidin-5-yl)-1,3-dihydro-imidazo[4,5-c]quinolin-2-one]
17 | 19.3 | 14.6 | 3 (≈ 6.35 µM) | −4.1 |  | CNc1ncc(-c2ccc3ncc4c(c3c2)n(-c2ccc(C(C)(C)O)nc2C)c(=O)n4C)cc1F [Example 31.1, 8-(5-Fluoro-6-methylamino-pyridin-3-yl)-1-[6-(1-hydroxy-1-methyl-ethyl)-2-methyl-pyridin-3-yl]-3-methyl-1,3-dihydro-imidazo[4,5-c]quinolin-2-one]
18 | 19.7 | 8.7 | 8 (≈ 18.9 µM) | −4.3 |  | Cc1ncccc1-n1c(=O)n(C)c2cnc3ccc(-c4cncc(N5CCC5)c4)cc3c21 [Example 2.29, 8-(5-Azetidin-1-yl-pyridin-3-yl)-3-methyl-1-(2-methyl-pyridin-3-yl)-1,3-dihydro-imidazo[4,5-c]quinolin-2-one]
19 | 16.4 | 22.2 | 196 (≈ 462 µM) | −4.5 |  | Cc1ncccc1-n1c(=O)n(C)c2cnc3ccc(-c4cncc(NC(C)C)c4)cc3c21 [Example 2.24, 8-(5-Isopropylamino-pyridin-3-yl)-3-methyl-1-(2-methyl-pyridin-3-yl)-1,3-dihydro-imidazo[4,5-c]quinolin-2-one]
20 | 9.92 | 7.02 | 13 (≈ 28.9 µM) |  | −4.0 | Cc1ncccc1-n1c(=O)n(C)c2cnc3ccc(-c4cnc(N)c(C(F)(F)F)c4)cc3c21 [Example 2.11, 8-(6-Amino-5-trifluoromethyl-pyridin-3-yl)-3-methyl-1-(2-methyl-pyridin-3-yl)-1,3-dihydro-imidazo[4,5-c]quinolin-2-one]
21 | 12.7 | 15.3 | 59 (≈ 121 µM) | −3.9 |  | CNc1ncc(-c2ccc3ncc4c(c3c2)n(-c2ccc(N3CC(F)(F)C3)nc2C)c(=O)n4C)cn1 [Example 24.1, 1-[6-(3,3-Difluoro-azetidin-1-yl)-2-methyl-pyridin-3-yl]-3-methyl-8-(2-methylamino-pyrimidin-5-yl)-1,3-dihydro-imidazo[4,5-c]quinolin-2-one]
22 | 5.3 | < 4.57 | 22 (≈ 39.1 µM) | −6.1 |  | Cc1nc(N2CCN(C)C(=O)C2)ccc1-n1c(=O)n(C)c2cnc3ccc(-c4cnc(N)c(C(F)(F)F)c4)cc3c21 [Example 21.1, 8-(6-Amino-5-trifluoromethyl-pyridin-3-yl)-3-methyl-1-[2-methyl-6-(4-methyl-3-oxo-piperazin-1-yl)-pyridin-3-yl]-1,3-dihydro-imidazo[4,5-c]quinolin-2-one]
